Measured values published in patent US10065990B2, “Cyclic peptide compound, and preparation method, pharmaceutical composition and use thereof” (HANGZHOU GUANYU BIO-MEDICAL CO., LTD, priority 2013, dated 2018).
Where two headings read alike, the source gives them in different places.

Experiments:
HDAC2 = HDAC2 (Homo sapiens, UniProt Q92769); experiment: HDAC biochemical activity measurement (fluorescent substrate deacetylation);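 also: HDAC2 enzyme with an acetyl-lysine fluorescent substrate, then developer added, fluorescence read at excitation 360 nm and emission 460 nm, inhibition measured across several compound concentrations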; conditions: 37° C. 30 minutes
Sequence of HDAC2 (Q92769 whole entry, species assumed): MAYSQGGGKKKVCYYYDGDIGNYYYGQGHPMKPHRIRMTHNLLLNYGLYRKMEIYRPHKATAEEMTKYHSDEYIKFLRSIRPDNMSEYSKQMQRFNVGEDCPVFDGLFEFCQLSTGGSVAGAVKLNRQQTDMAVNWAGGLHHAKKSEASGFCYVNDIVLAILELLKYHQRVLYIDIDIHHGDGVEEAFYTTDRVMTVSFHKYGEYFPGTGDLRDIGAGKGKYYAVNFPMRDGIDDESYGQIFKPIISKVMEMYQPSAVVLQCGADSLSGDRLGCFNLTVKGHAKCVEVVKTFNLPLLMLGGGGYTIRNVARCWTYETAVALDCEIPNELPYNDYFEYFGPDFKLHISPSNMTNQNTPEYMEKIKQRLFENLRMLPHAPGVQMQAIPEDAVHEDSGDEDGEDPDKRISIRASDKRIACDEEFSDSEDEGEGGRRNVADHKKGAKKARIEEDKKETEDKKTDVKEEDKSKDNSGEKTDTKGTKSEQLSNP
Protocol: (§2) The chemical activity of the compound is determined according to the degree of deacetylation inhibition of the HDAC enzyme. This experiment measured the degree of deacetylation related to tumor proliferation and metastasis of HDAC1, HDAC2, HDAC3, HDAC8, HDAC11 five subtypes HDAC enzymes. After the substrate containing an acetylated lysine side chain and HDAC enzyme are labeled with a fluorescent label, the fluorescent substrate is de acetyl. The fluorescent labeled substrate is cleaved by the enzyme, and the fluorescent substance is released, which generates 460 nm emission light under the excitation of 360 nm light.
(§3) HDAC substrate was diluted with reaction buffer to 200M (reaction concentration of 20M), the HDAC enzyme was diluted to the appropriate concentration, then added different concentrations of the test compounds and acted at 37° C. 30 minutes, and then added the same volume of 2-times concentration substrate developing solution (developer), incubated at room temperature for 15 minutes.

HDAC7 = target: T1, HDAC7 (Homo sapiens, UniProt Q8WUI4); experiment: as above; conditions: HDAC7; 37° C. 30 minutes;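 also: fluorogenic deacetylation assay using acetyl-lysine substrate at 20 µM, enzyme and compound incubated 30 min at 37 °C, then developer added, fluorescence read at 360/460 nm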
T1 sequence (Q8WUI4 1-952): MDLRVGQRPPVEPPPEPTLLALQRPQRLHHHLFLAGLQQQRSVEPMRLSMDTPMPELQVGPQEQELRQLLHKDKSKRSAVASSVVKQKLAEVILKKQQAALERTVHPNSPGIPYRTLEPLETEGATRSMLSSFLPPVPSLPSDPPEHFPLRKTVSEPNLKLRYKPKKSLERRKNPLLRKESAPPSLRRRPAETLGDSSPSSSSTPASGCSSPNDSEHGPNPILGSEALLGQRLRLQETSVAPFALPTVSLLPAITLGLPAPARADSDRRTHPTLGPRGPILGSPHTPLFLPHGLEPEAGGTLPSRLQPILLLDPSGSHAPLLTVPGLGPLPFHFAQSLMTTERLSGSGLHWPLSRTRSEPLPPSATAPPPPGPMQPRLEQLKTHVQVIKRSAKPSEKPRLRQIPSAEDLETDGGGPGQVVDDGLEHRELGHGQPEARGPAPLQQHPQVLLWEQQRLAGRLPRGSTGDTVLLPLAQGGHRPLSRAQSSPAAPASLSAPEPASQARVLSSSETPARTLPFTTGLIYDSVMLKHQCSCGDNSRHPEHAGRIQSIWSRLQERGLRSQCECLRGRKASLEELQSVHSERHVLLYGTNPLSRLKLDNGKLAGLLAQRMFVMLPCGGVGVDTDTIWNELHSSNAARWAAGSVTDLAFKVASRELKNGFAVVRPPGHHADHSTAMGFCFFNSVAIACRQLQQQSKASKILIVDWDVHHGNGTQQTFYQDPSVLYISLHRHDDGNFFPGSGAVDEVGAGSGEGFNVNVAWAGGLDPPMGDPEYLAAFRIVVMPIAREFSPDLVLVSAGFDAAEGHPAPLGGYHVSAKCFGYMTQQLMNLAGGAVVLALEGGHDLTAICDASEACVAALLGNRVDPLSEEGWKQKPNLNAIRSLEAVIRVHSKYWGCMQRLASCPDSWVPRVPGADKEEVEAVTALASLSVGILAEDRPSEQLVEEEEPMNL
Protocol: as §2
HDAC substrate was diluted with reaction buffer to 200M (reaction concentration of 20M), the HDAC enzyme was diluted to the appropriate concentration, then added different concentrations of the test compounds and acted at 37° C. 30 minutes, and then added the same volume of 2-times concentration substrate developing solution (developer), incubated at room temperature for 15 minutes. Finally, the last reading measured with a microplate plate reader, excitation light was 360 nm, the emitted light was 460 nm, data processing software was Prime 4, and the results are shown in Table 1.

[1] = tested on: A549 (human lung cancer cells); experiment: MTT cancer cell growth inhibition; type: cell-based; conditions: MTT, 72 hours incubation, read-out: GI50 A54
Summary of the method: (§1)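 Following overnight attachment of 1500 cells per well, each line was exposed to test drug (final 10^−5 to 10^−10 M) for 72 h in a humidified 37° C., 5% CO2 incubator. Four hours with MTT, DMSO dissolution of formazan, and a 570 nm reading yielded viability data used for GI50.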

[2] = tested on: BGC-823 (human gastric cancer cells); experiment: MTT cancer cell growth inhibition; type: cell-based; conditions: MTT, 72 hours incubation, read-out: GI50 BG
Summary of the method: as §1

[3] = tested on: Bel-7402 (human hepatoma cells); experiment: MTT cancer cell growth inhibition; type: cell-based; conditions: MTT, 72 hours incubation, Bel-7402 cells; read-out: GI50 Bel-7402
Summary of the method: as §1

[4] = tested on: DU145 (human prostate cancer cells); experiment: MTT cancer cell growth inhibition; type: cell-based; conditions: MTT, 72 hours incubation, read-out: GI50 Du1
Summary of the method: as §1

[5] = tested on: H1975 (non-small cell lung adenocarcinoma); experiment: MTT cancer cell growth inhibition; type: cell-based; conditions: MTT, 72 hours incubation, H1975 cells; read-out: GI50 H1975
Summary of the method: as §1

[6] = tested on: HCC827 (human non-small cell lung cancer cells); experiment: MTT cancer cell growth inhibition; type: cell-based; conditions: MTT, 72 hours incubation, HCC827 cells; read-out: GI50 HCC827
Summary of the method: as §1

[7] = tested on: HT1080 (human fibrosarcoma cells); experiment: MTT cancer cell growth inhibition; type: cell-based; conditions: MTT, 72 hours incubation, read-out: GI50 HT1
Summary of the method: as §1

[8] = tested on: Hela (human cervical cancer cells); experiment: MTT cancer cell growth inhibition; type: cell-based; conditions: MTT, 72 hours incubation, read-out: GI50 Hela
Summary of the method: as §1

[9] = tested on: Huh-7 (human hepatoma cells); experiment: MTT cancer cell growth inhibition; type: cell-based; conditions: MTT, 72 hours incubation, Huh-7 cells; read-out: GI50 Huh-7
Summary of the method: as §1

[10] = tested on: K562 (human leukemia cells); experiment: MTT cancer cell growth inhibition; type: cell-based; conditions: MTT, 72 hours incubation, K562 cells; read-out: GI50 K562
Summary of the method: as §1

[11] = tested on: KBM-5 (human chronic myelogenous leukemia); experiment: MTT cancer cell growth inhibition; type: cell-based; conditions: MTT, 72 hours incubation, KBM-5 cells; read-out: GI50 KBM-5
Summary of the method: as §1

[12] = tested on: KBM5-T315I (human chronic myelogenous leukemia); experiment: MTT cancer cell growth inhibition; type: cell-based; conditions: MTT, 72 hours incubation, KBM5-T315I cells; read-out: GI50 KBM5-T315I
Summary of the method: as §1

[13] = tested on: MCF-7 (human breast cancer cells); experiment: MTT cancer cell growth inhibition; type: cell-based; conditions: 72 hours incubation, read-out: GI50 MCF
Summary of the method: as §1

[14] = tested on: MDA-MB-231 (breast cancer cells); experiment: MTT cancer cell growth inhibition; type: cell-based; conditions: read-out: GI50 MDA-MB-231; MTT, 72 hours incubation, MDA-MB-231 cells
Summary of the method: as §1

[15] = tested on: MOLT-4 (human acute lymphoblastic leukemia cells); experiment: MTT cancer cell growth inhibition; type: cell-based; conditions: MTT, 72 hours incubation, read-out: GI50 Mol
Summary of the method: as §1

[16] = tested on: N-87 (human gastric cancer cells); experiment: MTT cancer cell growth inhibition; type: cell-based; conditions: MTT, 72 hours incubation, N-87 cells; read-out: GI50 N-87
Summary of the method: as §1

[17] = tested on: PANC-1 (Pac-1, human pancreatic cancer cells); experiment: MTT cancer cell growth inhibition; type: cell-based; conditions: MTT, 72 hours incubation, read-out: GI50 PAN
Summary of the method: as §1

[18] = tested on: SGC-7901 (human gastric cancer cells); experiment: MTT cancer cell growth inhibition; type: cell-based; conditions: MTT, 72 hours incubation, SGC-7901 cells; read-out: GI50 SGC-7901
Summary of the method: as §1

[19] = tested on: U937 (human leukemia cells); experiment: MTT cancer cell growth inhibition; type: cell-based; conditions: MTT, 72 hours incubation, read-out: GI50 U93
Summary of the method: as §1

[20] = tested on: lncap (prostate cancer cells); experiment: MTT cancer cell growth inhibition; type: cell-based; conditions: MTT, 72 hours incubation, read-out: GI50 lnca
Summary of the method: as §1

HDAC11 = target: T2, HDAC11 (Homo sapiens, UniProt Q96DB2); experiment: HDAC biochemical activity measurement (fluorescent substrate deacetylation);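 also: HDAC11 enzyme acting on an acetyl-lysine fluorogenic substrate, then a developer frees the fluorophore, read at excitation 360 nm and emission 460 nm, IC50 over a compound dilution series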; conditions: read-out: IC50 HDAC11; HDAC11; 37° C. 30 minutes
T2 sequence (Q96DB2 1-347): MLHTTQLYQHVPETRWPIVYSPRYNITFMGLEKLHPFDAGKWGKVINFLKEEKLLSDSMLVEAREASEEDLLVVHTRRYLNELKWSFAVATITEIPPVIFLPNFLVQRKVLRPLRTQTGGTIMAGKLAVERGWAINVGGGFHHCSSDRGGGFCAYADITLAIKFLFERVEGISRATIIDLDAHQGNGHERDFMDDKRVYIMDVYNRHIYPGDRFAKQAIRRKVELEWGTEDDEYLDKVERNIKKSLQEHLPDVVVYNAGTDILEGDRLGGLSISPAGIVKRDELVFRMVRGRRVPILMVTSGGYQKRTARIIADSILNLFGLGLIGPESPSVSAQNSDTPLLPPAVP
Protocol: as §2, §3

HDAC1 = HDAC1 (Homo sapiens, UniProt Q13547); experiment: as above
Sequence of HDAC1 (Q13547 whole entry, species assumed): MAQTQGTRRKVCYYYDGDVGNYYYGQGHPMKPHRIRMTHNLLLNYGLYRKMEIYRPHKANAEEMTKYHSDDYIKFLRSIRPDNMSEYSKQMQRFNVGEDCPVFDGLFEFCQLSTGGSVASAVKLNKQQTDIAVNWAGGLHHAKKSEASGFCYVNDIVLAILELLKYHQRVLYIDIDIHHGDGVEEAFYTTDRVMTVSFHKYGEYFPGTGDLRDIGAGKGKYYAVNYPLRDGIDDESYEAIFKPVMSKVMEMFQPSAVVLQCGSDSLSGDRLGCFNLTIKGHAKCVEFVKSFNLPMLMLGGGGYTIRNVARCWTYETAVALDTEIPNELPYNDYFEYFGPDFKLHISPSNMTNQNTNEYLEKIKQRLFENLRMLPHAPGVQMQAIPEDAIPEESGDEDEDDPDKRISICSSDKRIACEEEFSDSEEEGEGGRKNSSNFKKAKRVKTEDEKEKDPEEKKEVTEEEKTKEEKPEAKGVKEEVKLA

HDAC8 = target: T3, HDAC8 (Homo sapiens, UniProt Q9BY41); experiment: as above; conditions: 37° C. 30 minutes
T3 sequence (Q9BY41 1-377): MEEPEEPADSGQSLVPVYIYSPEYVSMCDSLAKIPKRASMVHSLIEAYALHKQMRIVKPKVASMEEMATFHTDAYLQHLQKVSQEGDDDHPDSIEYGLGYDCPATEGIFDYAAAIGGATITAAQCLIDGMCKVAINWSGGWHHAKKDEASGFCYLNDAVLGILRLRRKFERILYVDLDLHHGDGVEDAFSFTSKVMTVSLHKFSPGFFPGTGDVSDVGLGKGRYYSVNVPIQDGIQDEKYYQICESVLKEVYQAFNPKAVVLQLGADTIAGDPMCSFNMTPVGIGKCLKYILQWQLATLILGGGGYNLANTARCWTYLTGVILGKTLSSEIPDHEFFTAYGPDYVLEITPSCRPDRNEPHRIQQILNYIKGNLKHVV
Protocol: as §2, §3

HDAC3 = HDAC3 (Homo sapiens, UniProt O15379); experiment: as above; conditions: read-out: IC50 HDAC3; HDAC3; 37° C. 30 minutes;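 also: fluorogenic acetyl-lysine substrate (20 µM) deacetylated by HDAC3, then developer added for 15 min at room temperature, release of fluorophore read at excitation 360 nm, emission 460 nm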
Sequence of HDAC3 (O15379 whole entry, species assumed): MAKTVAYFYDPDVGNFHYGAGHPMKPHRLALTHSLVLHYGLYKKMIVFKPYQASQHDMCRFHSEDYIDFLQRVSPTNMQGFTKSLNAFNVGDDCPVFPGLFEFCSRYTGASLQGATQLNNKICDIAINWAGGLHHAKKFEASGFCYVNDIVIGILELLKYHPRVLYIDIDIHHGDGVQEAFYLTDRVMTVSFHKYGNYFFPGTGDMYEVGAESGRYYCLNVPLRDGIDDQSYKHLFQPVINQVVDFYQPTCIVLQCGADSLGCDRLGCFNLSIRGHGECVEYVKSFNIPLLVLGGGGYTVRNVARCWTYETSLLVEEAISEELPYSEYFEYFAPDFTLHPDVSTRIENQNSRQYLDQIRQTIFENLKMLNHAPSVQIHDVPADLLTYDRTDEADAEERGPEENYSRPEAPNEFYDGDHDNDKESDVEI
Sequence of HDAC3 (Q9Y618 395-489 partner limits assumed, species assumed): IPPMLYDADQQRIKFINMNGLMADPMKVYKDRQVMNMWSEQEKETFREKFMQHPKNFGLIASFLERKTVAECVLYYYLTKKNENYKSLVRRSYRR

[21] = HDAC1, 37° C. 30 minutes, read-out: IC50 HDAC1
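For IC50 HDAC1 in this document: fluorogenic acetyl-lysine substrate (20 µM) deacetylated by HDAC1, then developer releases fluorophore read at 360 nm excitation and 460 nm emission, inhibitor incubated 30 min at 37 °C.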
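For IC50 HDAC1, C (six-membered ring with substituents) in this document: fluorogenic acetyl-lysine substrate (20 µM) deacetylated by HDAC1, then developer releases fluorophore read at 360 nm excitation and 460 nm emission, inhibitor incubated 30 min at 37 °C.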

IC50 (HDAC2) [nM]	IC50 HDAC7 (HDAC7)	GI50 ([1]; A549 cells) [nM]	GI50 ([2]; BGC-823 cells) [nM]	GI50 [3] [nM]	GI50 ([4]; DU145 cells) [nM]	GI50 [5] [nM]	GI50 [6] [nM]	GI50 ([7]; HT1080 cells) [nM]	GI50 ([8]; Hela cells) [nM]	GI50 [9] [nM]	GI50 [10] [nM]	GI50 [11] [nM]	GI50 [12] [nM]	GI50 ([13]; MCF-7 cells) [nM]	GI50 [14] [nM]	GI50 ([15]; MOLT-4 cells) [nM]	GI50 [16] [nM]	IC50 (HDAC11) [nM]	IC50 (HDAC1; [21]) [nM]	Structure (SMILES)	other results
34	no activity	70	30	53	20	76	28	20	50	35	28	78	54	90	37	40	42	87	–	C/C=C1\NC(=O)c2nc(ccc2SC)CNC(=O)C[C@@H](/C=C/CCSC(C)=O)OC(=O)[C@H](C)NC1=O [Compound 213]	GI50 ([17]; PANC-1 cells): 80 nM; GI50 [18]: 58 nM; GI50 ([19]; U937 cells): 70 nM; GI50 ([20]; lncap cells): 70 nM
43	no activity	–	–	–	–	–	–	–	–	–	–	–	–	–	–	–	–	105	84	C/C=C1\NC(=O)c2ccc(F)c(n2)CNC(=O)C[C@@H](/C=C/CCSC=O)OC(=O)[C@H](C(C)C)NC1=O [Example 53]	IC50 (HDAC8): 26 nM; IC50 (HDAC3): 29 nM
–	no activity	50	40	19	30	37	15	20	20	65	48	25	42	30	47	70	17	–	66	C/C=C1\NC(=O)c2ccc(SC)c(n2)CNC(=O)C[C@@H](/C=C/CCSC(C)=O)OC(=O)[C@H](C)NC1=O [Compound 215]	GI50 ([17]; PANC-1 cells): 40 nM; GI50 [18]: 48 nM; GI50 ([19]; U937 cells): 90 nM; GI50 ([20]; lncap cells): 100 nM
46	–	–	–	–	–	–	–	–	–	–	–	–	–	–	–	–	–	73	16	C/C=C1\NC(=O)c2cc(F)cc(n2)CNC(=O)C[C@@H](/C=C/CCSC(C)=O)OC(=O)[C@H](C(C)C)NC1=O [Compound 49]	IC50 (HDAC1; Table 3, column C, read-out: IC50 HDAC1, C (six-membered ring with substituents)): 16 nM; IC50 (HDAC8): 38 nM; GI50 [1]: 60 nM; GI50 [2]: 70 nM; GI50 [4]: 10 nM; GI50 [7]: 70 nM; GI50 [8]: 80 nM; GI50 [13]: 50 nM; GI50 [15]: 20 nM; GI50 [17]: 70 nM; GI50 [19]: 30 nM; GI50 [20]: 20 nM; IC50 (HDAC3): 48 nM
